Results published in patent publication US9522888B2, “Substituted bicyclic compounds” (BRISTOL-MYERS SQUIBB COMPANY, priority 2014, dated 2016).

biological target: human S1P1 (Homo sapiens (Human), UniProt P21453); experiment: S1P1 binding assay (33P-S1P radioligand competition, CHO cell membranes); conditions: phosphate examples; read-out: S1P1 Binding
How it was run: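 Radioligand is 33P-S1P, competing for membranes from human S1P1-expressing CHO cells. Membranes resuspended in 50 mM HEPES pH 7.5, 100 mM NaCl, 1 mM MgCl2, 2 mM EDTA.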

Chain of human S1P1 (P21453 whole entry): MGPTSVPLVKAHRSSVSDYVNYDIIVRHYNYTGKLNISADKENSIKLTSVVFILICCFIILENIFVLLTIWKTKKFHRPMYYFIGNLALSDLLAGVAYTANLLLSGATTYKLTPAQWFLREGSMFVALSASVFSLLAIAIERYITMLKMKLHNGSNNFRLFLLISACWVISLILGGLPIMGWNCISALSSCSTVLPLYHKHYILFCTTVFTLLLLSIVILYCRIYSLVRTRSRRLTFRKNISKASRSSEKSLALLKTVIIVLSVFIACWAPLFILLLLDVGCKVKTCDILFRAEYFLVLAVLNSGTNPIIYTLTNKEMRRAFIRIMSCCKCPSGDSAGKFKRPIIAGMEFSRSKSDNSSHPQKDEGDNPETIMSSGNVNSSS

**Q.** How did the IC50 turn out when `CCCCCCCOC1CCc2cc([C@H]3CC[C@](N)(COP(=O)(O)O)C3)ccc2C1` (stereo partly shown) [compound 432] was run?
**A.** < 10 nM

**Q.** Which IC50 does the source give for `COc1ccc(OC[C@@H]2CCc3cc([C@H]4CC[C@](N)(COP(=O)(O)O)C4)ccc3C2)cc1` [compound 476] here?
**A.** 10 to 100 nM

**Q.** With `N[C@]1(COP(=O)(O)O)CC[C@H](c2ccc3c(c2)CC[C@@H](CCC2CCOCC2)C3)C1` [compound 558] as the compound, how does the IC50 read?
**A.** < 10 nM

**Q.** How did the IC50 turn out when `C=CCCCOC[C@@H]1CCc2cc([C@H]3CC[C@](N)(COP(=O)(O)O)C3)ccc2C1` [compound 454] was run?
**A.** < 10 nM

**Q.** `COCCC/C=C/[C@@H]1CCc2cc([C@H]3CC[C@](N)(COP(=O)(O)O)C3)ccc2C1` [compound 640] was tested. Which IC50 did it give?
**A.** < 10 nM

**Q.** With `CC/C=C/CC[C@H]1CCc2cc([C@H]3CC[C@](N)(COP(=O)(O)O)C3)ccc2C1` [compound 658] as the compound, how does the IC50 read?
**A.** < 10 nM

**Q.** How did the IC50 turn out when `CCOCC[C@@H]1CCc2cc([C@H]3CC[C@](N)(COP(=O)(O)O)C3)ccc2C1` [compound 541] was run?
**A.** < 10 nM

**Q.** For `COc1ccc(F)c(CC[C@H]2CCc3cc([C@@H]4CC[C@@](N)(COP(=O)(O)O)C4)ccc3C2)c1` (single isomer, unassigned) [compound 609], which IC50 is on record?
**A.** 10 to 100 nM

**Q.** With `COCC[C@@H]1CCc2cc([C@H]3CC[C@](N)(COP(=O)(O)O)C3)ccc2C1` [compound 540] as the compound, how does the IC50 read?
**A.** < 10 nM

**Q.** How did the IC50 turn out when `CCCSCC[C@@H]1CCc2cc([C@H]3CC[C@](N)(COP(=O)(O)O)C3)ccc2C1` [compound 535] was run?
**A.** < 10 nM

biological target: S1P1 (membranes prepared from S1P1/CHO cells) (Homo sapiens (Human), UniProt P21453); experiment: Receptor [35S] GTPγS binding assay (S1P1 GTPγS); assay type: biochemical; conditions: phosphate examples; read-out: S1P1 GTPγS
How it was run: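 Agonist-stimulated [35S]GTPγS binding (0.2 nM final) to S1P1/CHO membranes, 3 μg protein/well, measured after 45 min at room temperature. Buffer contained 10 μM GDP, saponin and fatty-acid-free BSA at pH 7.5. Compounds tested as 11-point 3-fold series; bound label captured on filters, scintillation-counted, EC50 reported.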

Chain of S1P1 (membranes prepared from S1P1/CHO cells) (P21453 whole entry): as above

**Q.** For `CCCCCCCOC1CCc2cc([C@H]3CC[C@](N)(COP(=O)(O)O)C3)ccc2C1` (stereo partly shown) [compound 432], which EC50 is on record?
**A.** < 10 nM

**Q.** Which EC50 does the source give for `COc1ccc(OC[C@@H]2CCc3cc([C@H]4CC[C@](N)(COP(=O)(O)O)C4)ccc3C2)cc1` [compound 476] here?
**A.** 10 to 100 nM

**Q.** Which EC50 does the source give for `N[C@]1(COP(=O)(O)O)CC[C@H](c2ccc3c(c2)CC[C@@H](CCC2CCOCC2)C3)C1` [compound 558] here?
**A.** < 10 nM

**Q.** With `C=CCCCOC[C@@H]1CCc2cc([C@H]3CC[C@](N)(COP(=O)(O)O)C3)ccc2C1` [compound 454] as the compound, how does the EC50 read?
**A.** 10 to 100 nM

**Q.** How did the EC50 turn out when `COCCC/C=C/[C@@H]1CCc2cc([C@H]3CC[C@](N)(COP(=O)(O)O)C3)ccc2C1` [compound 640] was run?
**A.** < 10 nM

**Q.** Which EC50 does the source give for `CC/C=C/CC[C@H]1CCc2cc([C@H]3CC[C@](N)(COP(=O)(O)O)C3)ccc2C1` [compound 658] here?
**A.** 10 to 100 nM

**Q.** For `CCOCC[C@@H]1CCc2cc([C@H]3CC[C@](N)(COP(=O)(O)O)C3)ccc2C1` [compound 541], which EC50 is on record?
**A.** 10 to 100 nM

**Q.** With `COc1ccc(F)c(CC[C@H]2CCc3cc([C@@H]4CC[C@@](N)(COP(=O)(O)O)C4)ccc3C2)c1` (single isomer, unassigned) [compound 609] as the compound, how does the EC50 read?
**A.** 10 to 100 nM

**Q.** For `COCC[C@@H]1CCc2cc([C@H]3CC[C@](N)(COP(=O)(O)O)C3)ccc2C1` [compound 540], which EC50 is on record?
**A.** 100 to 1000 nM

**Q.** Which EC50 does the source give for `CCCSCC[C@@H]1CCc2cc([C@H]3CC[C@](N)(COP(=O)(O)O)C3)ccc2C1` [compound 535] here?
**A.** < 10 nM

biological target: S1P3 (membranes prepared from EDG3-Gal5-bla HEK293T cells) (Homo sapiens (Human), UniProt Q99500); experiment: Receptor [35S] GTPγS binding assay (S1P3 GTPγS); assay type: biochemical; conditions: phosphate examples; read-out: S1P3 GTPγS
How it was run: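 Membranes (3 μg protein/well) from S1P1/CHO cells or EDG3-Gal5-bla HEK293T cells (S1P3) were incubated 45 min at room temperature with 0.2 nM final [35S]GTPγS in HEPES pH 7.5 buffer with 10 μM GDP, MgCl2 and saponin. Bound label counted after filtration; EC50 from 11-point, 3-fold dilutions.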

Chain of S1P3 (membranes prepared from EDG3-Gal5-bla HEK293T cells) (Q99500 whole entry): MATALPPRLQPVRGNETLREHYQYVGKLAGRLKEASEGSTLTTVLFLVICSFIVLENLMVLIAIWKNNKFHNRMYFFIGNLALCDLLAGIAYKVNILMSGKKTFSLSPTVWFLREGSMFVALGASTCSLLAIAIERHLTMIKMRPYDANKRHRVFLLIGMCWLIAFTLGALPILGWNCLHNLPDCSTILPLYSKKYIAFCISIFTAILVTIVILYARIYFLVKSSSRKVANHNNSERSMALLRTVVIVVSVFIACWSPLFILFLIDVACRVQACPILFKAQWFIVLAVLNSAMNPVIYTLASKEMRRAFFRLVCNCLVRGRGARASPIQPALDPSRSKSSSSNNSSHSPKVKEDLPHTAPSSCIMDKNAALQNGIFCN

**Q.** Which EC50 does the source give for `CCCCCCCOC1CCc2cc([C@H]3CC[C@](N)(COP(=O)(O)O)C3)ccc2C1` (stereo partly shown) [compound 432] here?
**A.** > 100 nM

**Q.** With `COc1ccc(OC[C@@H]2CCc3cc([C@H]4CC[C@](N)(COP(=O)(O)O)C4)ccc3C2)cc1` [compound 476] as the compound, how does the EC50 read?
**A.** > 625 nM

**Q.** For `N[C@]1(COP(=O)(O)O)CC[C@H](c2ccc3c(c2)CC[C@@H](CCC2CCOCC2)C3)C1` [compound 558], which EC50 is on record?
**A.** > 625 nM

**Q.** For `C=CCCCOC[C@@H]1CCc2cc([C@H]3CC[C@](N)(COP(=O)(O)O)C3)ccc2C1` [compound 454], which EC50 is on record?
**A.** > 625 nM

**Q.** For `COCCC/C=C/[C@@H]1CCc2cc([C@H]3CC[C@](N)(COP(=O)(O)O)C3)ccc2C1` [compound 640], which EC50 is on record?
**A.** > 625 nM

**Q.** Which EC50 does the source give for `CC/C=C/CC[C@H]1CCc2cc([C@H]3CC[C@](N)(COP(=O)(O)O)C3)ccc2C1` [compound 658] here?
**A.** > 625 nM

**Q.** For `CCOCC[C@@H]1CCc2cc([C@H]3CC[C@](N)(COP(=O)(O)O)C3)ccc2C1` [compound 541], which EC50 is on record?
**A.** > 625 nM

**Q.** With `COc1ccc(F)c(CC[C@H]2CCc3cc([C@@H]4CC[C@@](N)(COP(=O)(O)O)C4)ccc3C2)c1` (single isomer, unassigned) [compound 609] as the compound, how does the EC50 read?
**A.** > 625 nM

**Q.** How did the EC50 turn out when `COCC[C@@H]1CCc2cc([C@H]3CC[C@](N)(COP(=O)(O)O)C3)ccc2C1` [compound 540] was run?
**A.** > 625 nM

**Q.** With `CCCSCC[C@@H]1CCc2cc([C@H]3CC[C@](N)(COP(=O)(O)O)C3)ccc2C1` [compound 535] as the compound, how does the EC50 read?
**A.** > 625 nM

biological target: hS1P1/CHO cells (Homo sapiens (Human), UniProt P21453); experiment: hS1P1 ERK phosphorylation (S1P1 pERK); assay type: cell-based; conditions: phosphate examples
Experimental: hS1P1 ERK Phosphorylation (S1P1 pERK)
hS1P1/CHO cells were plated into BD Amine 384-well plates the day before the assay. On the day of the assay, growth medium was removed and replaced with serum-free medium (Ham's F-12 Invitrogen) and incubated for 2 hours. Test compounds pre-diluted in HBSS (Gibco)/20 mM HEPES (Gibco) were transferred to the cell plates and incubated for 7 minutes at 37° C. Cells were lysed in lysis buffer (Perkin Elmer) and phospho-ERK was measured using the SureFire pERK kit (Perkin Elmer) as described by the manufacturer. Data was plotted as percentage activation of the test compound relative to the efficacy of 10 μM S1P.

Chain of hS1P1/CHO cells (P21453 whole entry): as the sequence (P21453 whole entry) above

**Q.** For `CCCCCCCOC1CCc2cc([C@H]3CC[C@](N)(COP(=O)(O)O)C3)ccc2C1` (stereo partly shown) [compound 432], which EC50 is on record?
**A.** 10 to 100 nM

**Q.** `COc1ccc(OC[C@@H]2CCc3cc([C@H]4CC[C@](N)(COP(=O)(O)O)C4)ccc3C2)cc1` [compound 476] was tested. Which EC50 did it give?
**A.** 10 to 100 nM

**Q.** With `N[C@]1(COP(=O)(O)O)CC[C@H](c2ccc3c(c2)CC[C@@H](CCC2CCOCC2)C3)C1` [compound 558] as the compound, how does the EC50 read?
**A.** < 10 nM

**Q.** How did the EC50 turn out when `C=CCCCOC[C@@H]1CCc2cc([C@H]3CC[C@](N)(COP(=O)(O)O)C3)ccc2C1` [compound 454] was run?
**A.** < 10 nM

**Q.** How did the EC50 turn out when `COCCC/C=C/[C@@H]1CCc2cc([C@H]3CC[C@](N)(COP(=O)(O)O)C3)ccc2C1` [compound 640] was run?
**A.** < 10 nM

**Q.** Which EC50 does the source give for `CC/C=C/CC[C@H]1CCc2cc([C@H]3CC[C@](N)(COP(=O)(O)O)C3)ccc2C1` [compound 658] here?
**A.** < 10 nM

**Q.** How did the EC50 turn out when `CCOCC[C@@H]1CCc2cc([C@H]3CC[C@](N)(COP(=O)(O)O)C3)ccc2C1` [compound 541] was run?
**A.** < 10 nM

**Q.** For `COc1ccc(F)c(CC[C@H]2CCc3cc([C@@H]4CC[C@@](N)(COP(=O)(O)O)C4)ccc3C2)c1` (single isomer, unassigned) [compound 609], which EC50 is on record?
**A.** < 10 nM

**Q.** `COCC[C@@H]1CCc2cc([C@H]3CC[C@](N)(COP(=O)(O)O)C3)ccc2C1` [compound 540] was tested. Which EC50 did it give?
**A.** < 10 nM

**Q.** For `CCCSCC[C@@H]1CCc2cc([C@H]3CC[C@](N)(COP(=O)(O)O)C3)ccc2C1` [compound 535], which EC50 is on record?
**A.** < 10 nM
